Consider 80 compounds from the METLIN SMRT retention time set (Domingo-Almenara et al. 2019).

Structures are written as SMILES.

The data set is described as follows: gradient 5% acetonitrile 3 min, to 50% in 2 min, to 85% in 15 min, held 3 min, 100 µL/min. The settings on record: column: Zorbax Extend-C18 2.1 x 50 mm; eluents: water / acetonitrile, 0.1% formic acid. A digest of the protocol: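 Each retention time is based on an adduct peak selected computationally and verified by manual inspection. Measurements used HPLC–quadrupole time-of-flight mass spectrometry in positive and negative ionization mode on mixtures of ~100 pure standards. Chromatography ran on a Zorbax Extend-C18 column (2.1 × 50 mm, 1.8 μm) at 100 μL/min with water and acetonitrile, each containing 0.1% formic acid, and dead and dwell volumes of 40 μL and 900 μL.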
The compound `Cc1c(C)n(C(=O)CN2CCC(C(N)=O)CC2)c2ccccc12` returned an RP-LC retention time of 614 s.

`CC(C)(C)NC(=O)N1CCC(CNS(=O)(=O)c2ccc(Br)s2)CC1`: the RP-LC retention time stood at 818 s.

For `C=CCN(CC=C)C(=O)Cn1c(C)c(Cc2ccccc2)c(=O)n2nc(-c3ccccc3)nc12`, the RP-LC retention time stood at 1040 s.

`COCCN1CCn2cc(S(=O)(=O)Nc3ccc(Cl)cc3F)cc2C1=O` yielded an RP-LC retention time of 734 s.

With `CN1CCN(C(=O)c2cn(-c3cc(N4CCSCC4)ncn3)cn2)CC1`, the RP-LC retention time was 593 s.

`Cc1ccc(/C=C2\CCOC2=O)cc1` came in with an RP-LC retention time of 916 s.

Regarding `CCN1c2cc(Cl)ccc2C(=O)NC12CCN(C(=O)Nc1cc(C)ccc1OC)CC2`, the RP-LC retention time was found to be 916 s.

For the compound `O=C(NC1CCCCCCC1)C1CCCN(C(=O)c2cc(-c3cccnc3)n[nH]2)C1` (stereo not given), the RP-LC retention time was determined as 631 s.

In turn, `Cn1c(=O)c2nc(S(=O)(=O)CCC(=O)Nc3ccc(F)c(Cl)c3)n(C)c2n(C)c1=O` returned an RP-LC retention time of 756 s.

`Cc1ccc(CNC(=O)N2CCCC(C)(C(=O)NCc3ccc(C)cc3)C2)cc1` (stereo not given) yielded an RP-LC retention time of 947 s.

As for `COc1ccc(-c2nnc(COc3ccc(NC(=O)CNC(=O)Cc4ccccc4)cc3)o2)cc1`, the RP-LC retention time was 812 s.

In the case of `COc1ccccc1OCCN1C(=O)C(NC(C)=O)c2ccccc21` (stereo not given), the RP-LC retention time was 666 s.

The compound `CCOC(=O)c1cnc2c(-c3ccc(Cl)cc3)c(COC)nn2c1N` came in with an RP-LC retention time of 1150 s.

In the case of `CNC(=O)c1noc([C@@H]2CC(F)(F)CN2Cc2ccc(C)o2)n1`, the RP-LC retention time stood at 1070 s.

With `CCOc1cc(C(=O)Nc2c(-c3ccc(OC)cc3)nc3cc(C)ccn23)cc(OCC)c1OCC`, the RP-LC retention time was 803 s.

As for `CCn1cnc2cc(-c3noc(CNC(=O)c4ccc(C)cc4)n3)ccc21`, the RP-LC retention time is 654 s.

`COc1ccc(CNC(=O)Cc2nnc(-c3ccccn3)o2)cc1OC`: the RP-LC retention time is 622 s.

As for `O=C(NCCc1cccs1)c1cccc(N2CCNC(c3ccccc3)C2)n1` (stereo not given), the RP-LC retention time amounted to 656 s.

`COC(=O)c1ccc2c(=O)n(-c3cc(C)cc(C)c3)c(N3CCCC3)nc2c1` showed an RP-LC retention time of 1240 s.

In turn, `COc1ccc(-n2c(=O)c(C(=O)NCc3ccc4c(c3)OCO4)c(O)c3cccnc32)cc1` showed an RP-LC retention time of 1090 s.

`O=C(NC1CCCC1)N1CCC(c2noc(-c3ccccc3)n2)C1` (stereo not given): the RP-LC retention time is 868 s.

For the compound `COc1cc(-c2cccc(Cl)c2)nc2ccc(NC(=O)Cc3cccs3)cc12`, the RP-LC retention time came to 843 s.

For `Cc1ccc2oc(-c3noc(C(=O)NCCN4CCC(C)CC4)n3)c(C)c2c1`, the RP-LC retention time turned out to be 759 s.

`COC(=O)c1cc(OC)c(OC)cc1NC(=O)NCCc1c[nH]c2ccccc12`: the RP-LC retention time was found to be 876 s.

`CN1Cc2ccccc2-n2ccnc2C12CCN(C(=O)NC1CCCCC1)CC2`: the RP-LC retention time was found to be 611 s.

Regarding `O=C(Cc1csc2nc(-c3ccccc3)cn12)Nc1ccc(C(F)(F)F)cc1`, the RP-LC retention time amounted to 922 s.

On to `O=C(c1ccc(Br)o1)N1CCN(c2ccc(=O)n(-c3ccc(Cl)cc3)n2)CC1`, for which the RP-LC retention time worked out at 878 s.

For the compound `COc1ccc(OC)c2c1cc1n2CC(C)(C(=O)NC2CCCCCCC2)N(CCN(C)C)C1=O` (stereo not given), the RP-LC retention time turned out to be 760 s.

Regarding `CCc1ccc(NC(=O)N2CCCC2c2cc(C)on2)cc1` (stereo not given), the RP-LC retention time amounted to 845 s.

For the compound `CCn1c(C(=O)N2CCN(c3cccc(C)c3)C(C)C2)cc2sccc21` (stereo not given), the RP-LC retention time came to 1050 s.

`Cc1ccc(C)c2c(=O)c3c([nH]c12)CCN(CC(=O)Nc1ccccc1Cl)C3`: the RP-LC retention time is 656 s.

In turn, `O=C(NC1CC1)c1ccc(N2CCC(NCc3ccc(Br)cc3)C2)nc1` (stereo not given) gave an RP-LC retention time of 572 s.

On to `COc1cc2c(cc1OC)C(Nc1nc(-c3ccccc3)cs1)=NC(C)(C)C2`, for which the RP-LC retention time turned out to be 878 s.

Compound `COc1ccc(N2CCN(C(=O)c3ccc4c(c3)NC(=O)C3CCCCN43)CC2)cc1` (stereo not given) gave an RP-LC retention time of 756 s.

For the compound `Cc1ccc(S(=O)(=O)N2CCC(C(=O)NCc3csc(-c4ccccc4)n3)CC2)cc1C`, the RP-LC retention time stood at 989 s.

In turn, `Cc1cccc(N2CCN(C(=O)C3CCN(S(=O)(=O)c4cccc5nsnc45)CC3)CC2)c1C` displayed an RP-LC retention time of 1050 s.

Turning to `Cc1ccnc(N2CCCC(C(=O)NCCc3ccc(S(N)(=O)=O)cc3)C2)n1` (stereo not given), the RP-LC retention time was 604 s.

Compound `Cc1noc(C)c1C1CCCN1C(=O)Nc1ccccc1Br` (stereo not given) had an RP-LC retention time of 836 s.

Regarding `COc1ccc(CC(=O)N2CCC3(C2)C(=O)Nc2ccc(OC)cc23)c(Cl)c1` (stereo not given), the RP-LC retention time came out at 768 s.

`Cc1nc2c(OCc3ccccc3)cccn2c1CC#N` registered an RP-LC retention time of 655 s.

Compound `COc1ccc(NC(=O)Cn2nc3cc(C)nc(Nc4ccc(C)c(F)c4)n3c2=O)cc1` had an RP-LC retention time of 1040 s.

Take `COc1ccc(F)cc1S(=O)(=O)N1CCc2nn(C)c(=O)n2CC1`: the RP-LC retention time turned out to be 673 s.

In the case of `COCc1cc(=O)n(CC(=O)Nc2ccc(C)cc2C)c(N)n1`, the RP-LC retention time came out at 584 s.

Consider `C=CCn1c(C)c(CC(=O)N2CCCC2)c(=O)n2nc(-c3ccc(C)cc3)nc12`, for which the RP-LC retention time was 789 s.

As to `COc1ccc(NC(=O)C2CCN(S(=O)(=O)c3ccc4c(c3)sc(=O)n4C)CC2)c(OC)c1`, the RP-LC retention time came to 840 s.

Consider `CCn1nc(C)cc1C(=O)Nc1nc2c(s1)CC(C)CC2` (stereo not given), for which the RP-LC retention time was 935 s.

The compound `CC1CCN(S(=O)(=O)c2ccc(-c3nnc(C(=O)N4CCOCC4)o3)cc2)CC1` returned an RP-LC retention time of 797 s.

For the compound `CCCN(C)c1nccnc1OC1CCN(Cc2cccnc2)C1` (stereo not given), the RP-LC retention time is 594 s.

As to `O=C(NC1CCCCC1N1C(=O)CSC1=O)c1ccco1` (stereo not given), the RP-LC retention time is 668 s.

With `COc1ccc(NC(=O)Cn2cnc3nc4c(cc3c2=O)CCCC4)c(OC)c1`, the RP-LC retention time stood at 709 s.

Compound `COCC1CN(S(=O)(=O)c2ccc(C#N)cc2)CC12CCNCC2` (stereo not given) came in with an RP-LC retention time of 608 s.

The compound `Cc1ccc(C(=O)Nc2nnc(SCc3nnc(-c4ccccc4C)o3)s2)cc1` had an RP-LC retention time of 1040 s.

Regarding `COc1ccc(C(O)CN2CCN(c3ccc(F)cc3)CC2)cc1` (stereo not given), the RP-LC retention time worked out at 652 s.

`O=C(O)C1CCN(S(=O)(=O)c2ccccc2[N+](=O)[O-])CC1` registered an RP-LC retention time of 701 s.

With `O=C(CSc1nc2ccccc2o1)OCc1cc(-c2ccc3c(c2)OCCO3)on1`, the RP-LC retention time is 1000 s.

`Cc1ccc(-c2noc(C3CC3)n2)cc1S(=O)(=O)N1CCC(C(=O)N2CCOCC2)CC1` displayed an RP-LC retention time of 697 s.

On to `Cc1ccc(C)c(N2CCN(S(=O)(=O)c3ccc(-c4nnc(C5CC5)o4)o3)CC2)c1`, for which the RP-LC retention time was found to be 1130 s.

`CCNc1cc(C)nc(N2CCN(C(=O)CC)CC2)n1`: the RP-LC retention time came to 567 s.

On to `CCc1ccc(NC(=O)C2CCCN(c3ccc(=O)n(-c4ccc(C)c(Cl)c4)n3)C2)cc1` (stereo not given), for which the RP-LC retention time worked out at 586 s.

In turn, `Cc1cc(C)cc(NC(=O)NCCn2nnc3cc(C(=O)N4CCCC4)ccc32)c1` had an RP-LC retention time of 702 s.

Turning to `COC(=O)c1ccc(CN2C(=O)C(O)(c3ccccc3)c3ccccc32)cc1` (stereo not given), the RP-LC retention time was 899 s.

Turning to `Cc1c(C(=O)Nc2ccc(CC(=O)NC3CC3)cc2)cnn1-c1ccccc1`, the RP-LC retention time is 675 s.

Compound `CC(C)Oc1ccc(CN2CC[C@]3(CO)CN(Cc4ccccc4)C[C@@H]3C2)cc1` returned an RP-LC retention time of 718 s.

In turn, `Cc1cc(-c2nnc3sc(COc4ccc(C(C)(C)C)cc4)nn23)n[nH]1` showed an RP-LC retention time of 967 s.

`Cc1ccc(S(=O)(=O)N2CCCC(CCC(=O)NCc3ccccn3)C2)cc1` (stereo not given) showed an RP-LC retention time of 656 s.

Compound `O=NN(CCCl)C(=O)NCc1ccc[n+]([O-])c1` displayed an RP-LC retention time of 587 s.

The compound `COc1cc(-c2noc(CN3C(=O)COc4ccc(C)cc43)n2)cc(OC)c1OC` came in with an RP-LC retention time of 985 s.

In turn, `CCOc1ccc(CN2CCC3(CC2)CC(O)CCO3)cc1` (stereo not given) yielded an RP-LC retention time of 593 s.

In turn, `CCCN1C(=O)Cc2ccccc2C1C(=O)NCc1ccc2c(c1)OCO2` (stereo not given) displayed an RP-LC retention time of 765 s.

`CCn1c(C(=O)N2CCN(c3ccccn3)CC2)cc2c(=O)oc3ccccc3c21` gave an RP-LC retention time of 637 s.

With `Cc1nc(C)c(C(=O)N2CCC(c3noc(-c4cnccn4)n3)C2)s1` (stereo not given), the RP-LC retention time worked out at 632 s.

`O=C(Nc1ccc(-c2cn3cccnc3n2)cc1)C1CCCC1` yielded an RP-LC retention time of 648 s.

On to `CCc1cc(=O)n(CC(=O)Nc2ccc3c(c2)OCO3)c(-c2cccc(F)c2)n1`, for which the RP-LC retention time came to 1100 s.

Compound `Cc1ccc2c(c1)N(C(=O)Cn1ccn3nc(-c4ccccc4)c(CO)c3c1=O)CCO2` yielded an RP-LC retention time of 908 s.

As for `CCCCS(=O)(=O)N1CCc2nc(-c3ccc(OC)cc3)ncc2C1`, the RP-LC retention time came out at 983 s.

`CCCNC(=O)C1CCCN(C(=O)c2[nH]c(C)c(C(=O)OCC)c2C)C1` (stereo not given): the RP-LC retention time worked out at 712 s.

Compound `Cc1cc(NC(=O)CN2C(=O)CN(C)C(=O)c3ccccc32)ccc1Br` showed an RP-LC retention time of 765 s.

In turn, `CCCn1cnc2cc(CNC(=O)c3ccc(Cl)c(Cl)c3)ccc21` returned an RP-LC retention time of 683 s.

`COc1ccc(C(=O)N2CCN(c3cc(C)n4cnnc4n3)CC2)c(OC)c1` showed an RP-LC retention time of 999 s.

The compound `CCOC(=O)CNC(=O)N1CCCC1c1ccccc1C` (stereo not given) registered an RP-LC retention time of 768 s.
